Data set [1] has as its system muscarinic acetylcholine receptors (mAChRs). Nature of the data set: Ca2+ assay versus carbachol in LN229-MRGPRX2 cell line. The format is cell-based, human. To be noted: 10 µM, carbachol 100 µM.
A short description of data set [2]: MTT cytotoxicity assay, 1321N1 astrocytoma cells. The class given is cell-based. Conditions: human. How it is done: Potential cytotoxicity of 24 and its similarly potent analogs 27 and 30 was assessed in 3-(4,5-dimethylthiazol-2-yl)-2,5-diphenyl-2H-tetrazolium bromide (MTT) assays performed on human 1321N1 astrocytoma cells (Supplementary Table S3). This cell line was chosen since it is well-established for the screening of cytotoxic drugs, making it a reliable choice for assessing cytotoxicity.[46]
For the experiment, 1321N1 astrocytoma cells were seeded at a density of 1 × 10^5 cells/well in 180 µL of cell medium into transparent 96-well plates, whereby the outer wells only contained buffer (to avoid an edge effect). Cells were incubated for 24 h at 37°C, 5% CO2. Compound dilutions were prepared in DMSO. […] Subsequently, 20 µL of these compound dilutions were added to each well so that astrocytoma cells were incubated with varying concentrations of MRGPRX2 antagonists (0.01 µM–10 µM) at 37° C, 5% CO2. 5-Fluoruracil, a cytostatic drug, served as a positive control. Medium-containing DMSO in the absence of a compound served as a negative control. After 71 h, […] of MTT solution (5 mg/mL, prepared in Millipore water) was added to each well (final concentration 0.5 mg/mL) and cells were incubated again for another hour. Subsequently, the medium was removed, and cells were lyzed by adding 100 µL of DMSO per well. In order to dissolve the produced formazan dye crystals, plates were incubated for 2 min on a rotary shaker (150 rpm). Afterward, the UV absorbance at 570 nm was measured by using SoftMax® Pro5.1 Microplate Data Acquisition & Analysis Software (Molecular Devices, Sunnyvale, CA, USA). The UV absorbance at 690 nm was measured directly afterward to eliminate the background absorbance of residual medium and cell components. The values of the measured UV absorbance at 690 nm were subtracted from the values obtained by the measurement of UV absorbance at 570 nm. Three to four independent experiments were performed, each in triplicate.

The target of data set [3] is T1, MRGPRX2 (Homo sapiens, UniProt Q96LB1).
T1 sequence (Q96LB1 1-330): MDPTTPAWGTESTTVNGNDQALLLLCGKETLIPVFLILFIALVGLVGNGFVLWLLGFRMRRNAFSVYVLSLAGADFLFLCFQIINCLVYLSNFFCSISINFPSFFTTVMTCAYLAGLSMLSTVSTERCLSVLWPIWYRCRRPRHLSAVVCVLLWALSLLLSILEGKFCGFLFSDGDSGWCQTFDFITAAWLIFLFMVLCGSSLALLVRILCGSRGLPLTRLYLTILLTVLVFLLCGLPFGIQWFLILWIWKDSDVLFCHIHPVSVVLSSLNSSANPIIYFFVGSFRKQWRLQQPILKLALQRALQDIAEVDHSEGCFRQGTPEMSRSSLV
Description: β-hexosaminidase release, LAD2 cells. The class given is cell-based. To be noted: versus SP (0.3 µM). How it is done: (§1) PSB-172656 inhibited MRGPRX2-mediated Ca^2+ mobilization in LAD2 cells (see Supplementary Fig. S4).
Fig. 6 PSB-172656 inhibits MRGPRX2-mediated mast cell degranulation. a LAD2 cells were incubated with buffer (control) or various concentrations of MRGPRX2 antagonist PSB-172656, subsequently exposed to substance P (SP, 0.3 µM), and β-hexosaminidase release was measured. […] Data are expressed as means ± SEM of 3 biological replicates. Statistical significance was determined by one-way ANOVA (Tukey’s multiple comparisons), compared to the effect of SP in the absence of PSB-172656 (P-value*** < 0.001). b Potential cytotoxicity of PSB-172656 was determined in 3-[4,5-dimethylthiazol-2-yl]-2,5-diphenyl tetrazolium bromide (MTT) assays performed on LAD2 cells. Cells were treated with different concentrations of PSB-172656 for 24 h at 37 °C, and the optic density value was determined at 570 nm (the viability of untreated cells corresponds to 100% cell viability). […] Mean fluorescence intensity (MFI) levels of e CD107a and f CD63 are depicted. […] Degranulation is characterized by the release of β-hexosaminidase, expressed as a percentage of the total content. h Human skin MCs were incubated with different concentrations of PSB-172656 for 30 min followed by stimulation with CST-14 (1 µM). […]
Degranulation as determined by β-hexosaminidase release was performed as described previously.[66],[67] […]

Data set [4] concerns the target T1, MRGPRX2. Description: Ca2+ mobilization in LAD2 cells. The class given is cell-based. Conditions: stimulation with clomipramine (16.0 µM), paroxetine (18.1 µM), desipramine (34.4 µM); listed as PSB-172656.
Text: as §1
Blocking of MRGPRX2 by the selective antagonist PSB-172656. […] Arrows indicate addition of stimulus; graphs represent means ± SEM of three independent experiments.
For orientation: Calcium assays in cells follow changes in intracellular calcium, usually with a dye or a luminescent sensor.

These results are taken from PMC12010006, “Subnanomolar MAS-related G protein-coupled receptor-X2/B2 antagonists with efficacy in human mast cells and disease models” (Signal Transduction and Targeted Therapy, 2025).

As usually defined, the CC50 is the concentration at which the toxic effect on the cells reaches its halfway point. Lower therefore signals harm at low concentration. Broadly, the IC50 is the concentration that gives 50% inhibition. A higher IC50 goes with weaker potency.

Molecules are shown by their SMILES. “Also recorded” adds a separate entry of the source. A value given as a limit tells only on which side of the number the result lay.

On to `CCCc1c(C)[nH]c2nc3ccccc3n2c1=O` [Compound 1, 2-methyl-3-propylbenzo[4,5]imidazo[1,2-a]pyrimidin-4(1H)-one], for which, in data set [1], the “inhibition of signal induced by carbachol” value is “did not inhibit”.
`CCc1c(C(C)C)[nH]c2nc3cc(F)c(F)cc3n2c1=O` [Compound 24, 3-ethyl-7,8-difluoro-2-isopropylbenzo[4,5]imidazo [1,2-a] pyrimidin-4(1H)-one]: the CC50 at 72 h in data set [2] is more than 10000 nM. The cytotoxicity at 72 h, 10000 nM in data set [2] (up to 10,000 nM, read-out: Cytotoxicity % effect) worked out at 41%. Further, the IC50 against MRGPRX2 [3] came to 5.26 nM. The “effect on MRGPRX2-mediated Ca2+ mobilization in LAD2 cells” value at MRGPRX2 [4] is “decreased Ca^2+ mobilization; also recorded: inhibited”.
